Where two headings read alike, the source gives them in different places.
What was measured:
Assay in all cases: Pemetrexed cytotoxicity test upon suppression of expression of MYT1
Type in all cases: cell-based
[1] = tested on: A549; conditions: Homo sapiens, A549 (RB1 wild-type), 7 days
Description: (§1) Thereafter, the plates were shaken to transfect each siRNA at a final concentration of 10 nM.
(§2) The −Log 2 value of fold change of IC50 and the maximum value of Bliss score, which are indexes of the combination effect, were calculated by comparing with the actually obtained cell survival curve, and described in Table 6 (see Non Patent Literature 9).

[2] = tested on: ABC-1; conditions: Homo sapiens, ABC-1 (RB1 wild-type), 7 days
Description: as §1, §2

[3] = tested on: ChaGo-K-1; conditions: Homo sapiens, ChaGo-K-1 (RB1 mutant), 7 days
Description: as §1, §2

[4] = tested on: EKVX; conditions: Homo sapiens, EKVX (RB1 wild-type), 7 days
Description: as §1, §2

[5] = tested on: HOP-62; conditions: Homo sapiens, HOP-62 (RB1 wild-type), 7 days
Description: as §1, §2

[6] = tested on: NCI-H1155; conditions: Homo sapiens, NCI-H1155 (RB1 mutant), 7 days
Description: as §1, §2

[7] = tested on: NCI-H1666; conditions: Homo sapiens, NCI-H1666 (RB1 wild-type), 7 days
Description: as §1, §2

[8] = tested on: NCI-H1993; conditions: Homo sapiens, NCI-H1993 (RB1 wild-type), 7 days
Description: as §1, §2

[9] = tested on: NCI-H2110; conditions: NCI-H2110 (RB1 mutant), 7 days
Description: as §1, §2

[10] = tested on: NCI-H2122; conditions: Homo sapiens, NCI-H2122 (RB1 wild-type), 7 days
Description: as §1, §2

[11] = tested on: NCI-H292; conditions: Homo sapiens, NCI-H292 (RB1 wild-type), 7 days
Description: as §1, §2

[12] = tested on: NCI-H322; conditions: NCI-H322 (RB1 wild-type), 7 days
Description: as §1, §2

[13] = tested on: NCI-H358; conditions: Homo sapiens, NCI-H358 (RB1 wild-type), 7 days
Description: as §1, §2

[14] = tested on: NCI-H441; conditions: Homo sapiens, NCI-H441 (RB1 wild-type), 7 days
Description: as §1, §2

[15] = tested on: NCI-H460; conditions: Homo sapiens, NCI-H460 (RB1 wild-type), 7 days
Description: as §1, §2

[16] = tested on: NCI-H596; conditions: Homo sapiens, NCI-H596 (RB1 mutant), 7 days
Description: as §1, §2

[17] = tested on: NCI-H661; conditions: Homo sapiens, NCI-H661 (RB1 wild-type), 7 days
Description: as §1, §2

[18] = tested on: PC-9; conditions: Homo sapiens, PC-9 (RB1 wild-type), 7 days
Description: as §1, §2

[19] = read-out: IC50 of pemetrexed, MYT1 #16, MYT1 siRNA #16 10 nM
[20] = read-out: IC50 of pemetrexed, MYT1 #18, MYT1 siRNA #18 10 nM
[21] = read-out: IC50 of pemetrexed, NT, negative control siRNA 10 nM

Nc1nc2[nH]cc(CCc3ccc(C(=O)N[C@@H](CCC(=O)O)C(=O)O)cc3)c2c(=O)[nH]1 [pemetrexed]
IC50 [1, 19]: 1.53 µM | IC50 [1, 20]: 1.95 µM | IC50 [1, 21]: 2.85 µM | IC50 [2, 19]: 0.363 µM | IC50 [2, 20]: 0.313 µM | IC50 [2, 21]: 0.973 µM | IC50 [3, 19]: 0.133 µM | IC50 [3, 20]: 0.192 µM | IC50 [3, 21]: 0.914 µM | IC50 [4, 19]: 0.166 µM | IC50 [4, 20]: 0.263 µM | IC50 [4, 21]: 0.404 µM | IC50 [5, 19]: 0.0981 µM | IC50 [5, 20]: 0.0919 µM | IC50 [5, 21]: 0.175 µM | IC50 [6, 19]: 0.673 µM | IC50 [6, 20]: 1.65 µM | IC50 [6, 21]: 9.84 µM | IC50 [7, 19]: 0.473 µM | IC50 [7, 20]: 0.291 µM | IC50 [7, 21]: 0.619 µM | IC50 [8, 19]: 0.0246 µM | IC50 [8, 20]: 0.106 µM | IC50 [8, 21]: 0.181 µM | IC50 [9, 19]: 0.0105 µM | IC50 [9, 20]: 0.0414 µM | IC50 [9, 21]: 0.227 µM | IC50 [10, 19]: 0.0135 µM | IC50 [10, 20]: 0.0472 µM | IC50 [10, 21]: 0.159 µM | IC50 [11, 19]: 0.0711 µM | IC50 [11, 20]: 0.187 µM | IC50 [11, 21]: 0.391 µM | IC50 [12, 19]: 1.03 µM | IC50 [12, 20]: 0.805 µM | IC50 [12, 21]: 1.6 µM | IC50 [13, 19]: 0.531 µM | IC50 [13, 20]: 0.333 µM | IC50 [13, 21]: 0.986 µM | IC50 [14, 19]: 0.0956 µM | IC50 [14, 20]: 0.865 µM | IC50 [14, 21]: 0.884 µM | IC50 [15, 19]: 0.465 µM | IC50 [15, 20]: 0.563 µM | IC50 [15, 21]: 0.667 µM | IC50 [16, 19]: 0.00701 µM | IC50 [16, 20]: 0.021 µM | IC50 [16, 21]: 0.385 µM | IC50 [17, 19]: 0.0457 µM | IC50 [17, 20]: 0.129 µM | IC50 [17, 21]: 0.315 µM | IC50 [18, 19]: 0.0329 µM | IC50 [18, 20]: 0.0777 µM | IC50 [18, 21]: 0.145 µM
